Some test systems named below: DMS 273 small cell lung; RXF-631 renal; SNB-78 CNS; M19-MEL melanoma; MCF7 breast; BT-549 breast; MDA-MB-435; PC-3 prostate; MDA-N.
Experiment in all cases: DTP human tumour cell line panel, 48 h

Several values for one entry are separate records, joined by “and”; a condition that tells them apart may be missing. Equal values may be shown once.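 All cell lines were grown in 96-well plates and treated with compound for 48 hours. GI50 = concentration required for 50% inhibition of growth. TGI is the concentration that stops growth completely.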 Where a SMILES comes first, the peptide text is derived from it. [ ]: non-standard residue; d: D form. The star is where a group is joined. NMeF = CN[CH](Cc1ccccc1)C(=O)O; NMeV = CN[CH](C(=O)O)C(C)C; Boc = CC(C)(C)OC(=O)* A value given as a limit tells only on which side of the number the result lay.

By TGI is commonly meant the concentration at which net growth stops. Low values mean greater sensitivity of the cells, high ones lower sensitivity of the cells. By GI50 is commonly meant the concentration giving 50% growth inhibition.

For `Cn1c(=O)c(C(c2ccc([N+](=O)[O-])cc2)c2c(O)c3ccccc3n(C)c2=O)cc2ccccc21` (stereo unspecified), the TGI with DMS 273 small cell lung, with RXF-631 renal, in the assay on SNB-78 CNS and with M19-MEL melanoma was more than 100 µM each time.
For `C1=CC2SSSC2C1` (stereo unspecified), the concentration for total growth inhibition (TGI) with DMS 273 small cell lung and with M19-MEL melanoma was more than 100 µM throughout.
For the compound `COc1ccccc1CCc1cc(OC)c(OC)c(OC)c1`, the TGI in the assay with DMS 273 small cell lung, in the assay with SNB-78 CNS and with M19-MEL melanoma was more than 100 µM each time.
As for `CCOc1ccccc1N=Nc1ccc2oc(=O)c(C(=O)Nc3cccc(C)c3)cc2c1`, the TGI in the assay on DMS 273 small cell lung is more than 100 µM; with RXF-631 renal, more than 100 µM; in the assay with SNB-78 CNS it was 91.3 µM; with M19-MEL melanoma it was 93.4 µM.
Regarding `O=C1OC(c2ccccc2)=N/C1=C\c1cccc2ccccc12`, the concentration for total growth inhibition (TGI) with DMS 273 small cell lung, with SNB-78 CNS and in the assay with M19-MEL melanoma was more than 100 µM each time.
Consider `CC(=O)/C(C)=N/NC(=O)c1ccccc1O`, for which the TGI in the assay on DMS 273 small cell lung is more than 10 µM; in the assay on MCF7 breast, more than 100 µM; with RXF-631 renal it was more than 10 µM; in the assay on SNB-78 CNS, more than 10 µM; in the assay on M19-MEL melanoma, more than 10 µM; with BT-549 breast, more than 100 µM. Moreover, the TGI in the assay with MDA-MB-435, in the assay on PC-3 prostate and in the assay with MDA-N was more than 100 µM each time.
Consider `COc1ccc(C(=O)C(C(=O)CCC(=O)Nc2cccc(Cl)c2)c2ccc(OC)cc2)cc1` (stereo unspecified), for which the TGI in the assay with DMS 273 small cell lung, in the assay on RXF-631 renal and with M19-MEL melanoma was more than 100 µM each time.
In the case of `O=C1C2C3C=C4c5ccccc5N(c5ccccc5)C4(C2C(=O)N1Cc1ccccc1)C1C(=O)N(Cc2ccccc2)C(=O)C31` (stereo unspecified), the total growth inhibition concentration (TGI) in the assay with RXF-631 renal, in the assay on SNB-78 CNS and in the assay on M19-MEL melanoma was more than 100 µM throughout.
With `COc1cccc2c1C(=O)c1c(O)c3c(c(O)c1C2=O)C[C@@](O)(C(C)=O)C[C@@H]3OC1OC(C)C(O)C(N)C1Br` (stereo partly specified), the TGI with DMS 273 small cell lung was 0.268 µM and 0.151 µM; in the assay on SNB-78 CNS, 3.09 µM; in the assay with M19-MEL melanoma it was 0.364 µM and 0.328 µM; in the assay on BT-549 breast, 0.913 µM; in the assay on MDA-MB-435, 1.13 µM; with PC-3 prostate, 1.03 µM. Besides, the total growth inhibition concentration (TGI) in the assay on MDA-N was found to be 0.63 µM.
Take `Cc1cc(Cl)ccc1N=C1NC(=O)C(CC(=O)Nc2ccc([N+](=O)[O-])cc2[N+](=O)[O-])S1` (stereo unspecified): the TGI in the assay with DMS 273 small cell lung is 82.7 µM; with SNB-78 CNS, 73.6 µM; with M19-MEL melanoma, 75.4 µM.
As to `COc1cc2c(c(OC)c1OC)-c1ccc(OC)c(=O)cc1[C@@H](NC(=O)c1ccccc1)CC2`, the GI50 in the assay on MCF7 breast, in the assay on BT-549 breast, in the assay with MDA-MB-435, in the assay with PC-3 prostate and in the assay with MDA-N was less than 0.003 µM throughout. Moreover, the TGI in the assay on MCF7 breast is 30 µM and > 7.65 µM; in the assay on RXF-631 renal, more than 48.3 µM; in the assay on SNB-78 CNS, 38.7 µM; with M19-MEL melanoma it was more than 100 µM; with BT-549 breast, 30 µM; in the assay with MDA-MB-435, less than 0.003 µM. Besides, the concentration for total growth inhibition (TGI) was 30 µM and > 56.5 µM with PC-3 prostate; less than 0.003 µM in the assay on MDA-N.
For `Cc1nc(N)sc1C(=O)/C=C\c1ccc2c(c1)OCO2`, the total growth inhibition concentration (TGI) with DMS 273 small cell lung, in the assay with RXF-631 renal, with SNB-78 CNS and with M19-MEL melanoma was more than 100 µM throughout.
Consider `CCOC(=O)C1=C(C)N(NC(=O)Nc2ccccc2)C(=O)C1=P(c1ccccc1)(c1ccccc1)c1ccccc1`, for which the TGI in the assay with DMS 273 small cell lung and in the assay on M19-MEL melanoma was more than 100 µM throughout.
For `Cc1cccc(NC(=O)/C(=N\NC(C)(C)C)C2NC(=S)NC2=O)c1C` (stereo unspecified), the TGI in the assay on RXF-631 renal, with SNB-78 CNS and with M19-MEL melanoma was more than 100 µM throughout.
With `NCCCCN(CCCN)/[N+]([O-])=N\O`, the TGI with DMS 273 small cell lung, with SNB-78 CNS and in the assay on M19-MEL melanoma was more than 100 µM in each case.
Turning to `COC(=O)C1=C(C)N(NC(=O)OC(C)(C)C)C(=O)C1=P(c1ccccc1)(c1ccccc1)c1ccccc1`, the TGI in the assay on DMS 273 small cell lung, with SNB-78 CNS and in the assay on M19-MEL melanoma was more than 100 µM in each case.
In the case of `CCC[CH2][Sn]1([CH2]CCC)[O]CC(CN2CCCC2)[O]1` (stereo unspecified), the results for the GI50 in the assay on DMS 273 small cell lung, with SNB-78 CNS and with M19-MEL melanoma were 16.3 µM, 11.4 µM and 14.6 µM, respectively. Also, the TGI in the assay on DMS 273 small cell lung came out at 30.8 µM; in the assay with SNB-78 CNS, 37.4 µM; with M19-MEL melanoma, 29.4 µM.
With `Cc1cccc(NC(=O)C(=O)C(C(=O)c2ccc3ccccc3c2)C2OC(=O)c3ccccc32)c1C` (stereo unspecified), the TGI with DMS 273 small cell lung was 39 µM; in the assay on RXF-631 renal it was 29.8 µM; with SNB-78 CNS it was more than 100 µM; in the assay with M19-MEL melanoma, 21.9 µM.
As for `CC1(C)SCc2nc3ncccc3n21`, the concentration for total growth inhibition (TGI) in the assay on RXF-631 renal, in the assay with SNB-78 CNS and in the assay on M19-MEL melanoma was more than 100 µM each time.
Take `COc1cc(C(C)O)c[n+](CCc2c[nH]c3ccccc23)c1` (stereo unspecified): the concentration for total growth inhibition (TGI) with DMS 273 small cell lung, in the assay on RXF-631 renal and with M19-MEL melanoma was more than 100 µM in each case.
For the compound `CC(C)(C)c1ccc2c(c1)S(=O)(=O)Nc1ccccc1NS(=O)(=O)c1cc(C(C)(C)C)ccc1OCCOCCOCCO2`, the total growth inhibition concentration (TGI) in the assay on DMS 273 small cell lung, in the assay on RXF-631 renal, in the assay with SNB-78 CNS and with M19-MEL melanoma was more than 100 µM in each case.
Turning to `CCOC(=O)CC1(C(=O)OCC)c2[nH]c3ccccc3c2CCN1Cc1ccccc1` (stereo unspecified), the TGI stood at 32 µM in the assay on DMS 273 small cell lung, 81.2 µM with SNB-78 CNS and 27.6 µM with M19-MEL melanoma.
For `COC1(OC)C2(Cl)C(Cl)=C(Cl)C1(Cl)C1C=CC=CC12` (stereo unspecified), the TGI in the assay with DMS 273 small cell lung was more than 100 µM; with RXF-631 renal it was 39.9 µM; with SNB-78 CNS, more than 100 µM; in the assay with M19-MEL melanoma, more than 100 µM.
On to `CC1(C)C(=O)N(CCCCCCN2C(=O)C(C)(C)c3ccccc32)c2ccccc21`, for which the TGI with DMS 273 small cell lung is more than 100 µM; in the assay with SNB-78 CNS, more than 100 µM; in the assay with M19-MEL melanoma, 65.2 µM.
`NC(N)=N/N=C(\c1nc2ccc([N+](=O)[O-])cc2[nH]c1=O)C(O)c1ccc([N+](=O)[O-])cc1` (stereo unspecified): the total growth inhibition concentration (TGI) in the assay on DMS 273 small cell lung, in the assay on RXF-631 renal, with SNB-78 CNS and in the assay with M19-MEL melanoma was more than 100 µM throughout.
Turning to `Cc1cn(C2CC(O)C(CO)O2)c(=O)n2nnnc12` (stereo unspecified), the TGI with DMS 273 small cell lung, in the assay on RXF-631 renal, with SNB-78 CNS and in the assay with M19-MEL melanoma was more than 100 µM each time.
With `COC(=O)/C(=N\Nc1nnc(C)n1N)C(C#N)c1ccc(Cl)cc1` (stereo unspecified), the concentration for total growth inhibition (TGI) in the assay on DMS 273 small cell lung, with SNB-78 CNS and with M19-MEL melanoma was more than 100 µM each time.
As for `N#C/C(=C1C=C(Br)/C(=N\O)C=C\1Cl)c1cccc2ccccc12`, the concentration for total growth inhibition (TGI) was 28.6 µM in the assay with MCF7 breast; 22.1 µM with BT-549 breast; 10.4 µM in the assay with MDA-MB-435; 10.9 µM with PC-3 prostate; 3.28 µM with MDA-N.
For `CS/C(N)=N\NC(=O)CCC(=O)Nc1ccccc1C(F)(F)F`, the TGI in the assay on DMS 273 small cell lung, in the assay with SNB-78 CNS and in the assay with M19-MEL melanoma was more than 100 µM each time.
As to `Cc1ccn2c(c1)nc1nc3ccccc3nc12`, the TGI with DMS 273 small cell lung, with SNB-78 CNS and in the assay on M19-MEL melanoma was more than 100 µM throughout.
As for `CCCN1CCC(=O)N(CCC(F)(F)C(F)(F)C(F)(F)C(F)(F)C(F)(F)C(F)(F)F)C1=S`, the TGI in the assay with MCF7 breast, with BT-549 breast, in the assay with MDA-MB-435, in the assay with PC-3 prostate and in the assay on MDA-N was more than 100 µM in each case.
In the case of `O=C(Cc1ccccc1)NN1C(=O)C(Cl)C1c1cc(Br)ccc1O` (stereo unspecified), the concentration for total growth inhibition (TGI) was more than 100 µM with DMS 273 small cell lung, 91.8 µM in the assay with SNB-78 CNS and 23.3 µM with M19-MEL melanoma.
For `C[C@@H]1CC(=O)C2CCCC1C2=O` (stereo partly specified), the concentration for total growth inhibition (TGI) in the assay on DMS 273 small cell lung, in the assay on RXF-631 renal, in the assay with SNB-78 CNS and in the assay with M19-MEL melanoma was more than 100 µM each time.
On to `CC(C)C(Nc1c2ccccc2nc2ccccc12)C(=O)O` (stereo unspecified), for which the concentration for total growth inhibition (TGI) with DMS 273 small cell lung and with M19-MEL melanoma was more than 100 µM throughout.
For the compound `O=C1CCN2C(=O)CCN12`, the TGI in the assay with SNB-78 CNS and in the assay on M19-MEL melanoma was more than 100 µM each time.
For `CC(C)(C)c1cc(Br)c(O)c(CN(Cc2cc(C(C)(C)C)cc(Br)c2O)C2CCCCC2)c1`, the concentration for total growth inhibition (TGI) with MCF7 breast was found to be 26.8 µM; with BT-549 breast it was 29.2 µM; in the assay on MDA-MB-435 it was 27.4 µM; with PC-3 prostate it was 28.1 µM; with MDA-N it was 27.6 µM.
Consider `CC(C)C(NC(=O)OC(C)(C)C)C(=O)N(C)C(Cc1ccccc1)C(=O)N(C)C(C(=O)O)C(C)C` (stereo not drawn) (Boc-Val-[NMeF]-[NMeV]-OH; configuration not given here), for which the concentration for total growth inhibition (TGI) with DMS 273 small cell lung and with M19-MEL melanoma was more than 100 µM in each case.
Consider `COC(C(O)CO)C(O)C(O)C(=O)NNc1ccccc1` (stereo unspecified), for which the TGI in the assay with MCF7 breast, with BT-549 breast, in the assay on MDA-MB-435, in the assay on PC-3 prostate and with MDA-N was more than 100 µM each time.
Consider `COC1=C(C)C(=O)c2c(c(COC(N)=O)c3n2CC2C3N2C)C1=O` (stereo unspecified), for which the concentration for total growth inhibition (TGI) with MCF7 breast was less than 0.027 µM; with BT-549 breast it was 0.167 µM; with MDA-MB-435, 0.0921 µM; in the assay on PC-3 prostate, 0.244 µM; in the assay on MDA-N, 0.136 µM.
Turning to `Cc1ccc(C2=C(c3ccccc3)C(Br)(c3ccc(C)cc3)C(c3ccccc3)=C2c2ccc(C)cc2)cc1`, the TGI with DMS 273 small cell lung, in the assay on RXF-631 renal, in the assay with SNB-78 CNS and in the assay with M19-MEL melanoma was more than 100 µM throughout.
In the case of `c1ccc(CNn2nnc3ccccc32)cc1`, the TGI with DMS 273 small cell lung, in the assay with SNB-78 CNS and in the assay with M19-MEL melanoma was more than 100 µM throughout.
`COc1cc2c(cc1OC)C(CC(=O)NN=C(C)C)NCC2` (stereo unspecified): the concentration for total growth inhibition (TGI) with DMS 273 small cell lung, in the assay with SNB-78 CNS and in the assay on M19-MEL melanoma was more than 100 µM in each case.
For the compound `Nn1c(=O)n(Cc2ccccc2)n(-c2ccccc2)c1=O`, the concentration for total growth inhibition (TGI) in the assay with DMS 273 small cell lung and with SNB-78 CNS was more than 100 µM in each case.

These data come from PubChem BioAssay (NCI).
